In US10544138B2, “Tricyclic kinase inhibitors of MELK and methods of use” (Dana-Farber Cancer Institute, Inc., priority 2015, dated 2020):

Experiments:
[1] = target: CDK1 (Homo sapiens, UniProt P06493); experiment: Recombinant mitotic kinase assay, CDK1; type: biochemical; conditions: recombinant kinases
Description: (§1) […] assays were performed with recombinant protein of the indicated mitotic kinase (left) and AMPK family kinases (right) in the presence of THZ-4-63-1. […] Cells were treated with nocodazole (100 ng/ml) for 18 h or not treated (Asyn., asynchronous). Nocodazole-arrested mitotic cells (M) were isolated via shake-off. The attached cells enriched in G2 phase (G2) were harvested. A portion of the mitotic cells were washed off nocodazole and released into G1 phase after 4 hours of incubation (G1). […] In Panel D, mitotic lysates were prepared from the indicated cells, and treated with λ-phosphatase at 30° C. In Panel E, nocodazole-arrested mitotic cells were treated with increasing concentration of THZ-4-63-1 for 30 min. Cell lysates were subjected to immunoblotting.
(§2) To discover a selective MELK inhibitor, a few molecule scaffolds with the potential of binding to MELK were identified, including 2,4-disubstituted pyrimidines and benzonaphthyridinones. […] To investigate if THZ-4-63-1 confers selective inhibition on MELK, we tested its effect on other mitotic kinases. In assays using recombinant kinases, MELK kinase activity was 20-fold more sensitive to THZ-4-63-1, than that of Aurora A, Aurora B, CDK1, or PLK1 (FIG. 1B).

[2] = test system: metaphase chromosome alignment; experiment: Metaphase chromosome alignment, immunofluorescence after MG132; type: cell-based; conditions: 5 μM for 4 h followed by MG132 (10 μM) 1 h
Description: (§3) U2OS-GFP-H2B cells were treated with vehicle control (0.02% DMSO, v/v) or 1 μM THZ-4-63-1, and subjected to live imaging. Time is given in hours:minutes, relative to the initial time of drug treatment. The arrow points to chromosomes that haven't incorporated into the metaphase plate. […] MDA-MB-468 cells expressing tet-on-shMELK and GFPH2B cells were treated with doxycycline for three days, before subjected to live imaging. Panel D contains images of immunoblotting of lysates from cells treated as in Panel C. Panel E contains images showing mitotic cell death in a cell treated with THZ-4-63-1. The table indicates the quantification of cell death events. Panel F contains images showing that treatment with THZ-4-63-1 impairs chromosome alignment. Cells were treated with DMSO control, or THZ-4-63-1 (5 μM) for 4 hours, followed by MG132 (10 μM) for 1 h. Cells were fixed and stained with anti-CREST, anti-α-tubulin, and DAPI to visualize chromosomes and kinetochores. The histogram indicates the quantifications of cells in metaphase with misaligned chromosomes.
Indeed, we observed in asynchronized cells that MELK inhibition caused the appearance of scatted chromosome near the metaphase plate (arrowed, FIG. 2A). […]

[3] = target: T1, NUAK1 (Homo sapiens, UniProt O60285); experiment: Recombinant AMPK family kinase assay, NUAK1; type: biochemical; conditions: recombinant kinases
T1 sequence (O60285 1-661): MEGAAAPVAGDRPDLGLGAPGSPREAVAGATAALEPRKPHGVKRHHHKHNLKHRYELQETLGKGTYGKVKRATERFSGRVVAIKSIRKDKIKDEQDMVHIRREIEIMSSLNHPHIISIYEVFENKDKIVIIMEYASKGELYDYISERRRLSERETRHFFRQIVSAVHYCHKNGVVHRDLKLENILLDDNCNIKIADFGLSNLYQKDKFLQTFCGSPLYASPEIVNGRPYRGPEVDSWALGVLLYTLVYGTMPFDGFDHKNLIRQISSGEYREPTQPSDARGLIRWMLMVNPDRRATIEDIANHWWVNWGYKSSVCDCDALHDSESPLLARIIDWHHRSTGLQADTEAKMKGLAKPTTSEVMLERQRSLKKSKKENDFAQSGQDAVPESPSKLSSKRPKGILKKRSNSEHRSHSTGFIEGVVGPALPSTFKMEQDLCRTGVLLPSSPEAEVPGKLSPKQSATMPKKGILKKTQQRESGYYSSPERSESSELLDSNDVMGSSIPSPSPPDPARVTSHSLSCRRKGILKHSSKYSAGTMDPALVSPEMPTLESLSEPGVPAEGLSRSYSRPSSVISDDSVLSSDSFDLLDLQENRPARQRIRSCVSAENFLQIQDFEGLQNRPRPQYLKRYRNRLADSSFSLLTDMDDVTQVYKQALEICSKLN
Description: as §1, §2

[4] = test system: MDA-MB-468; experiment: Cell growth with paclitaxel combination in MDA-MB-468; type: cell-based, human; conditions: THZ-4-63-1 33.3 or 66.6 nM plus paclitaxel 2 nM
Description: Mitotic cells were treated with THZ-4-63-1 at indicated concentrations for 4 h. Cells were collected for immunoblotting. Panel B contains time-lapse images of U2OS-(H2B-GFP) cells treated with THZ-4-63-1 (5 μM). […] Panel C contains blots showing proteasome-mediated degradation of Cyclin B1, Aurora B and MELK in THZ-4-63-1-induced mitotic slippage. Mitotic cells were treated as in Panel A with THZ-4-63-1 (5 μM), or MG132 (10 μM), or both for 4 h. Panel D contains a graph showing quantification of cell proliferation in the indicated breast cancer cell lines, which were treated with vehicle control or THZ-4-63-1 for one week (Top) and also contains bright-field images acquired from control cells or cells treated with THZ-4-63-1 (111 nM) (Bottom). […] Cells were treated with indicated drugs, and harvested in ten days for quantification of cell growth. The bold curve depicts the theoretic prediction of an additive action between paclitaxel and THZ-4-63-1.
Because microtubule-targeting chemotherapy is the mainstay of treatment for many types of cancer including basal-like breast cancer, we asked if MELK inhibition could combine with drugs that impair microtubule dynamics. […]

[5] = test system: MDA-MB-468 cells; experiment: Live imaging of chromosome alignment in MDA-MB-468 GFP-H2B cells; type: cell-based, human; conditions: 1 μM
Description: MDA-MB-468 cells stably expressing GFP-H2B were treated with vehicle control, or 1 μM THZ-4-63-1, and immediately subjected to live imaging. Time given in hours:minutes, relative to the starting point of treatment. […] Each dot represent an individual mitotic event.
To utilize this novel compound for probing the roles of MELK in mitosis, we first treated asynchronized U2OS cells with THZ-4-63-1 (1 μM), and subjected the cells for live-cell imaging. The fusion protein GFP-Histone H2B was stably introduced into the cells to facilitate observing chromosome dynamics^2,7. […] MELK inhibition also delayed mitotic progression in human breast cancer cell line, MDA-MB-468 (FIG. 6). […] Together, these findings indicate that MELK is novel regulator for the normal progression of mitosis, and that inactivation or depletion of MELK induces a metaphase-like arrest in cancer cells.

[6] = test system: U2OS cells; experiment: Live-cell imaging of mitotic progression in U2OS-GFP-H2B cells; type: cell-based, human; conditions: 1 μM, asynchronized U2OS cells; control 31.1 min
Description: as §3
To utilize this novel compound for probing the roles of MELK in mitosis, we first treated asynchronized U2OS cells with THZ-4-63-1 (1 μM), and subjected the cells for live-cell imaging. The fusion protein GFP-Histone H2B was stably introduced into the cells to facilitate observing chromosome dynamics^2,7. […]

Chain of CDK1 (P06493 whole entry, species assumed): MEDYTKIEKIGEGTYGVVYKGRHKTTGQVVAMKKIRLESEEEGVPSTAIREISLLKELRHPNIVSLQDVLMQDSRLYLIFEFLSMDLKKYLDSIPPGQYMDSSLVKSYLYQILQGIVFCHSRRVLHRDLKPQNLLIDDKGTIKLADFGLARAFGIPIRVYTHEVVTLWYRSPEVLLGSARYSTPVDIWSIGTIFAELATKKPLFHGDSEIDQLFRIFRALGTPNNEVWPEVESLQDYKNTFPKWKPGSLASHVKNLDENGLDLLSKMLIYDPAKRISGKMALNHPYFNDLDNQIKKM
Chain of CDK1 (P14635 whole entry partner, species assumed): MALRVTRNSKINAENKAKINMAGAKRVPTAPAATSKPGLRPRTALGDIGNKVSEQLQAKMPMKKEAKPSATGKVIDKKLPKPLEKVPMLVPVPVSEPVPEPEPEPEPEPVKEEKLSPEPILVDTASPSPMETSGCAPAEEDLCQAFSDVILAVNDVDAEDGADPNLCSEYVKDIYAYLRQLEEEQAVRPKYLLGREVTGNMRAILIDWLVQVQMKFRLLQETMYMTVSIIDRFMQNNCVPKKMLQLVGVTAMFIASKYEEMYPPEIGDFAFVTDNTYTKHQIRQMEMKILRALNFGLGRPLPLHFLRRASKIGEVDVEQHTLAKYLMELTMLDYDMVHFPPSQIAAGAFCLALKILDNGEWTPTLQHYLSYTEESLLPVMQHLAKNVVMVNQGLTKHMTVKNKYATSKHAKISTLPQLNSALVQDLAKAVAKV

CN(C)Cc1ccc(-n2c(=O)ccc3cnc4ccc(-c5cc(Cl)c(O)c(Cl)c5)cc4c32)cc1 [THZ-4-63-1]
MELK kinase activity more sensitive than that of CDK1 [1]: 20 fold
Cells with failure in metaphase chromosome alignment [2]: approximately 80%
Selectivity for MELK over NUAK1 [3]: preferentially targets MELK
Inhibition of cell growth, combined with paclitaxel [4]: ≥ 80%
Chromosome alignment [5]: inhibits chromosome alignment
Time from nuclear envelope breakdown (NEBD) to anaphase, mean [6]: 66.4 min
